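Protocol summary: plate cells (96-well), add compound at 5 concentrations, incubate 48 h, interpolate endpoints linearly. TGI marks complete inhibition of growth.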
Key:
Assay in all cases: NCI-60 cell line screen, 48 h
[1] = system: ACHN renal
[2] = system: DU-145 prostate
[3] = system: NCI-H226 lung
[4] = system: NCI-H23 lung
[5] = system: SF-268 CNS
[6] = system: TK-10 renal
[7] = system: T-47D breast
[8] = system: SN12C renal
[9] = system: 786-0 renal
[10] = system: HS 578T breast
[11] = system: UO-31 renal
[12] = system: RPMI-8226 leukemia
[13] = system: UACC-257 melanoma
[14] = system: PC-3 prostate
[15] = system: RXF 393 renal
[16] = system: SF-295 CNS
[17] = system: CAKI-1 renal
[18] = system: M14 melanoma
[19] = system: BT-549 breast
[20] = system: HL-60(TB) leukemia
[21] = system: HCC-2998 colon
[22] = system: LOX IMVI melanoma
[23] = system: NCI-H522 lung
[24] = system: A498 renal
[25] = system: KM12 colon
[26] = system: OVCAR-5 ovarian
[27] = system: SW-620 colon
[28] = system: SR leukemia
[29] = system: HOP-92 NSCLC
[30] = system: MOLT-4 leukemia
[31] = system: SK-OV-3 ovarian
[32] = system: MDA-MB-231 breast
[33] = system: SK-MEL-5 melanoma
[34] = system: COLO 205 colon
[35] = system: SK-MEL-28 melanoma
[36] = system: MDA-N
[37] = system: IGROV1 ovarian
[38] = system: OVCAR-4 ovarian
[39] = system: EKVX NSCLC
[40] = system: U251 CNS
[41] = system: SK-MEL-2 melanoma
[42] = system: HCT-116 colon
[43] = system: NCI-H460 lung
[44] = system: MCF7 breast
[45] = system: SNB-19 CNS
[46] = system: NCI/ADR-RES ovarian
[47] = system: HCT-15 colon
[48] = system: UACC-62 melanoma
[49] = system: MDA-MB-435
[50] = system: HOP-62 NSCLC
[51] = system: CCRF-CEM leukemia
[52] = system: K-562 leukemia
[53] = system: A549 NSCLC
[54] = system: MALME-3M melanoma
[55] = system: SNB-75 CNS
[56] = system: OVCAR-3 ovarian
[57] = system: OVCAR-8 ovarian
[58] = system: SF-539 CNS
[59] = system: HT29 colon

O=C(O)CN1C(=O)c2ccc(NC(=O)C(=O)O)cc2S1(=O)=O showed a TGI [1] of over 100 µM, a TGI [2] of over 100 µM and a TGI [3] of over 100 µM. For the same molecule, the TGI [4] was over 100 µM, the TGI [5] was over 100 µM and the TGI [6] was over 100 µM. For the same molecule, the TGI [7] was over 100 µM, the TGI [8] was over 100 µM and the TGI [9] was over 100 µM. For the same molecule, the TGI [10] was over 100 µM, the TGI [11] was over 100 µM and the TGI [12] was over 100 µM. For the same molecule, the TGI [13] was over 100 µM, the TGI [14] was over 100 µM and the TGI [15] was over 100 µM. It also gave a TGI [16] of over 100 µM, a TGI [17] of over 100 µM and a TGI [18] of over 100 µM. For the same molecule, the TGI [19] was over 100 µM, the TGI [20] was over 100 µM and the TGI [21] was over 100 µM. The TGI [22] was over 100 µM, the TGI [23] was over 100 µM and the TGI [24] was over 100 µM. For the same molecule, the TGI [25] was over 100 µM, the TGI [26] was over 100 µM and the TGI [27] was over 100 µM. The TGI [28] was over 100 µM, the TGI [29] was over 100 µM and the TGI [30] was over 100 µM. The TGI [31] was over 100 µM, the TGI [32] was over 100 µM and the TGI [33] was over 100 µM. For the same molecule, the TGI [34] was over 100 µM, the TGI [35] was over 100 µM and the TGI [36] was over 100 µM. For the same molecule, the TGI [37] was over 100 µM, the TGI [38] was over 100 µM and the TGI [39] was over 100 µM. It also gave a TGI [40] of over 100 µM, a TGI [41] of over 100 µM and a TGI [42] of over 100 µM. The TGI [43] was over 100 µM, the TGI [44] was over 100 µM and the TGI [45] was over 100 µM. For the same molecule, the TGI [46] was over 100 µM, the TGI [47] was over 100 µM and the TGI [48] was over 100 µM. The TGI [49] was over 100 µM, the TGI [50] was over 100 µM and the TGI [51] was over 100 µM. The TGI [52] was over 100 µM, the TGI [53] was over 100 µM and the TGI [54] was over 100 µM.

Work on Clc1ccc(-c2cn3c(nc4ccccc43)c(-c3ccccc3)n2)cc1 yielded a TGI [1] of 95.9 µM, a TGI [55] of over 36.6 µM and a TGI [2] of over 100 µM. For the same molecule, the TGI [3] was over 100 µM, the TGI [4] was 64.2 µM and the TGI [5] was over 100 µM. The TGI [6] was 62.2 µM, the TGI [7] was over 75.5 µM and the TGI [8] was over 100 µM. For the same molecule, the TGI [9] was 15.2 µM, the TGI [10] was 66 µM and the TGI [56] was over 82.4 µM. The TGI [11] was over 60 µM, the TGI [12] was over 100 µM and the TGI [13] was over 100 µM. It also gave a TGI [14] of 47 µM, a TGI [15] of over 49.2 µM and a TGI [16] of 28.3 µM. The TGI [17] was 32.1 µM, the TGI [18] was over 87.4 µM and the TGI [19] was 50.2 µM. The TGI [20] was over 100 µM, the TGI [57] was 33 µM and the TGI [21] was over 100 µM. The TGI [22] was over 100 µM, the TGI [23] was 43.3 µM and the TGI [24] was 54 µM. The TGI [25] was over 100 µM, the TGI [26] was over 55.9 µM and the TGI [27] was over 100 µM. It also gave a TGI [28] of over 100 µM, a TGI [29] of 40.9 µM and a TGI [30] of over 100 µM. It also gave a TGI [31] of 26.5 µM, a TGI [32] of over 100 µM and a TGI [33] of 46.5 µM. It also gave a TGI [34] of over 100 µM, a TGI [35] of over 100 µM and a TGI [36] of over 100 µM. The TGI [37] was over 78.3 µM, the TGI [38] was 25.2 µM and the TGI [39] was over 100 µM. The TGI [40] was 25.3 µM, the TGI [41] was 38.8 µM and the TGI [42] was over 100 µM. For the same molecule, the TGI [43] was over 57.4 µM, the TGI [58] was over 69 µM and the TGI [44] was over 100 µM. For the same molecule, the TGI [45] was 32.6 µM, the TGI [46] was over 100 µM and the TGI [47] was over 100 µM. It also gave a TGI [48] of 26.7 µM, a TGI [49] of over 100 µM and a TGI [50] of 24.6 µM. The TGI [51] was over 100 µM, the TGI [59] was over 67.5 µM and the TGI [52] was over 100 µM. For the same molecule, the TGI [53] was 51.4 µM and the TGI [54] was over 63.7 µM.

With OCCCN=C1CCCCC1 the TGI [1] was over 100 µM, the TGI [2] was over 100 µM and the TGI [3] was over 100 µM. It also gave a TGI [4] of over 100 µM, a TGI [5] of over 100 µM and a TGI [6] of over 100 µM. It also gave a TGI [7] of over 100 µM, a TGI [8] of over 100 µM and a TGI [9] of over 100 µM. The TGI [10] was over 100 µM, the TGI [56] was over 100 µM and the TGI [11] was over 100 µM. The TGI [12] was over 100 µM, the TGI [13] was over 100 µM and the TGI [14] was over 100 µM. For the same molecule, the TGI [15] was over 100 µM, the TGI [16] was over 100 µM and the TGI [17] was over 100 µM. For the same molecule, the TGI [18] was over 100 µM, the TGI [19] was over 100 µM and the TGI [20] was over 100 µM. For the same molecule, the TGI [57] was over 100 µM, the TGI [22] was over 100 µM and the TGI [23] was over 100 µM. The TGI [24] was over 100 µM, the TGI [25] was over 100 µM and the TGI [26] was over 100 µM. For the same molecule, the TGI [27] was over 100 µM, the TGI [28] was over 100 µM and the TGI [29] was over 100 µM. For the same molecule, the TGI [30] was over 100 µM, the TGI [31] was over 100 µM and the TGI [32] was over 100 µM. It also gave a TGI [33] of over 100 µM, a TGI [34] of over 100 µM and a TGI [35] of over 100 µM. It also gave a TGI [36] of over 100 µM, a TGI [37] of over 100 µM and a TGI [38] of over 100 µM. For the same molecule, the TGI [39] was over 100 µM, the TGI [40] was over 100 µM and the TGI [41] was over 100 µM. The TGI [42] was over 100 µM, the TGI [43] was over 100 µM and the TGI [58] was over 100 µM. For the same molecule, the TGI [44] was over 100 µM, the TGI [45] was over 100 µM and the TGI [46] was over 100 µM. It also gave a TGI [47] of over 100 µM, a TGI [48] of over 100 µM and a TGI [49] of over 100 µM. It also gave a TGI [50] of over 100 µM, a TGI [59] of over 100 µM and a TGI [52] of over 100 µM. It also gave a TGI [53] of over 100 µM and a TGI [54] of over 100 µM.

Reference: PubChem BioAssay (NCI)
